We go through 3 molecules from publication PMC5012566, “A Cell-Based Assay for Measuring Endogenous BcrAbl Kinase Activity and Inhibitor Resistance” (PLoS ONE, 2016).

As usually defined, the IC50 is the concentration that gives 50% inhibition.

Test [1] has as its system K562-NR cells. Put plainly: cells. Particulars: Homo sapiens, read-out: Growth Inhibition IC50 (95% CI).
Another test deals with K562 cells. Particulars: parental K562 cells; 10 nM dasatinib; Fig 6C.
Test [2] concerns K562-NR cells. The conditions noted are these: cross-resistance, relative to parental.
In test [3] the test system is chronic myeloid leukemia (CML). The conditions noted are these: cited from earlier work.
The test system of a further test is K562-DR cells. The experiment in a line: cells. The conditions noted are these: Homo sapiens, read-out: Growth Inhibition IC50 (95% CI).

Take `Cc1nc(Nc2ncc(C(=O)Nc3c(C)cccc3Cl)s2)cc(N2CCN(CCO)CC2)n1` [dasatinib]: the half-maximal inhibitory concentration (IC50) in the test on K562-NR cells [1] was determined as 3.6 nM. For the same molecule, the “cell growth at the level consistent with resistant culture conditions” value in the test with K562 cells is on record as “lack of growth”. Moreover, the “cell growth inhibition (in words)” value in the test on K562-NR cells [2] is reported as “somewhat less potent”.

For the molecule `Cc1ccc(NC(=O)c2ccc(CN3CCN(C)CC3)cc2)cc1Nc1nccc(-c2cccnc2)n1` [imatinib], the response rate in test [3] was 80%. Further, in the test with K562-NR cells [2], the “cell growth inhibition (in words)” value was “unable to inhibit growth at any of the concentrations tested”.

On to `Cc1cn(-c2cc(NC(=O)c3ccc(C)c(Nc4nccc(-c5cccnc5)n4)c3)cc(C(F)(F)F)c2)cn1` [nilotinib], for which the IC50 with K562-DR cells was found to be 25 nM; in the test with K562-NR cells [1] it was 718 nM.
